According to patent US10597388B2, “Pyridazinone herbicides” (FMC CORPORATION, priority 2014, dated 2020):
Read-outs that look alike come from different tables or passages of the source.

Tests used:
Assay type in all cases: in vivo
[1] = system: velvetleaf (Abutilon theophrasti); test: Test A greenhouse herbicide test, pre- and postemergence; settings: 240 h; for pest or weed control at 1000 g/ha: 1000 g ai/ha; for pest or weed control at 1000 g/ha / pest or weed control at 500 g/ha: 0 to 100 scale; for pest or weed control at 125 g/ha: 125 g ai/ha; for pest or weed control at 500 g/ha: 500 g ai/ha
Procedure, shortened: (§1)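 Seeds sown in loam–sand blend got a preemergence directed soil spray of compound in non-phytotoxic solvent with surfactant. Postemergence treatment was given at 2–10 cm, one- to two-leaf stage. After ~10 d in greenhouse, injury was rated visually vs untreated controls, 0 (no effect) to 100 (complete control).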

[2] = system: momingglory (Ipomoea spp.); test: as above; settings: 240 h; for pest or weed control at 1000 g/ha: 1000 g ai/ha; for pest or weed control at 1000 g/ha / pest or weed control at 500 g/ha: 0 to 100 scale; for pest or weed control at 125 g/ha: 125 g ai/ha; for pest or weed control at 500 g/ha: 500 g ai/ha
Procedure, shortened: as §1

[3] = system: LOLMU, Italian Ryegrass (Lolium multiflorum); test: Test F mixtures with commercial herbicides, Post- or Pre-emergence
Procedure, shortened: (§2)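 Observed control (0–100, visual, day 20) was compared with Colby-expected additive effect calculated from each component's effect at the same rate. Treatments were pre- or post-emergence sprays on seeded Sandy Loam, rate as g a.i./ha.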

[4] = system: ECHCG, barnyardgrass (Echinochloa crus-galli); test: as above
Procedure, shortened: as §2

[5] = system: GALAP, galium (Galium aparine); test: as above; settings: Post-emergence, scale 0-100
Procedure, shortened: as §2

[6] = system: SETVI, giant foxtail (Setaria faberii); test: as above
Procedure, shortened: as §2

[7] = system: ALOMY, blackgrass (Alopecurus myosuroides); test: as above; settings: Post-emergence, scale 0-100
Procedure, shortened: as §2

[8] = system: AMBEL, common ragweed (Ambrosia elatior); test: as above
Procedure, shortened: as §2

[9] = system: AMARE, redroot pigweed (Amaranthus retroflexus); test: as above
Procedure, shortened: as §2

[10] = system: KCHSC, kochia (Kochia scoparia); test: as above
Procedure, shortened: as §2

[11] = post-emergence, Postemergence, 0 is no effect, 100 is complete control, read-out: Velvetleaf plant response rating
[12] = pre-emergence, Preemergence, 0 no effect, 100 complete control, read-out: Plant response rating, Velvetleaf
[13] = post-emergence, Postemergence, 0 is no effect, 100 is complete control, read-out: Morningglory plant response rating
[14] = pre-emergence, Preemergence, 0 no effect, 100 complete control, read-out: Plant response rating, Morningglory
[15] = Post-emergence, Rate 16 g a.i./ha, scale 0-100
[16] = Post-emergence, Rate 62 g a.i./ha, scale 0-100
[17] = Pre-emergence, Rate 16 g a.i./ha, applied alone, 20 d, scale 0 to 100
[18] = Pre-emergence, Rate 62 g a.i./ha, applied alone, 20 d, scale 0 to 100

Question: How did the pest or weed control at 1000 g/ha [1, 11] turn out when `Cc1ccc2sc(C)c(-c3c(O)c(C)nn(C)c3=O)c2c1` [Compound 1, 4-(2,5-dimethylbenzo[b]thien-3-yl)-5-hydroxy-2,6-dimethyl-3(2H)-pyridazinone] was run?
Answer: 100%

Question: And the pest or weed control at 1000 g/ha [1, 12]?
Answer: 100%

Question: And the pest or weed control at 1000 g/ha [2, 13]?
Answer: 100%

Question: What about the pest or weed control at 1000 g/ha [2, 14] of the same compound?
Answer: 90%

Question: And the “LOLMU Obsd.” value [3, 15]?
Answer: 65.0

Question: And the “LOLMU Obsd.” value [3, 16]?
Answer: 100.0

Question: What about the “LOLMU Obsd.” value [3, 17] of the same compound?
Answer: 65

Question: And the “LOLMU Obsd.” value [3, 18]?
Answer: 100

Question: And the “ECHCG Obsd.” value [4, 15]?
Answer: 0.0

Question: What about the “ECHCG Obsd.” value [4, 16] of the same compound?
Answer: 0.0

Question: And the “ECHCG Obsd.” value [4, 17]?
Answer: 0

Question: And the “ECHCG Obsd.” value [4, 18]?
Answer: 20

Question: And the “GALAP Obsd.” value ([5]; Rate 16 g a.i./ha)?
Answer: 65.0

Question: And the “GALAP Obsd.” value ([5]; Rate 62 g a.i./ha)?
Answer: 100.0

Question: And the “SETVI Obsd.” value [6, 15]?
Answer: 0.0

Question: What about the “SETVI Obsd.” value [6, 16] of the same compound?
Answer: 40.0

Question: What about the “SETVI Obsd.” value [6, 17] of the same compound?
Answer: 0

Question: What about the “SETVI Obsd.” value [6, 18] of the same compound?
Answer: 60

Question: What about the “ALOMY Obsd.” value ([7]; Rate 16 g a.i./ha) of the same compound?
Answer: 0.0

Question: What about the “ALOMY Obsd.” value ([7]; Rate 62 g a.i./ha) of the same compound?
Answer: 35.0

Question: What about the “AMBEL Obsd.” value [8, 15] of the same compound?
Answer: 95.0

Question: And the “AMBEL Obsd.” value [8, 16]?
Answer: 100.0

Question: And the “AMBEL Obsd.” value [8, 17]?
Answer: 65

Question: What about the “AMBEL Obsd.” value [8, 18] of the same compound?
Answer: 90

Question: What about the “AMARE Obsd.” value [9, 15] of the same compound?
Answer: 30.0

Question: And the “AMARE Obsd.” value [9, 16]?
Answer: 100.0

Question: What about the “AMARE Obsd.” value [9, 17] of the same compound?
Answer: 20

Question: What about the “AMARE Obsd.” value [9, 18] of the same compound?
Answer: 90

Question: What about the “KCHSC Obsd.” value [10, 15] of the same compound?
Answer: 60.0

Question: What about the “KCHSC Obsd.” value [10, 16] of the same compound?
Answer: 100.0

Question: And the “KCHSC Obsd.” value [10, 17]?
Answer: 0

Question: What about the “KCHSC Obsd.” value [10, 18] of the same compound?
Answer: 25

Question: Which results are given for `Cc1nn(C)c(=O)c(-c2c(C)oc3c(C)cccc23)c1O` [Compound 9, 4-(2,7-dimethyl-3-benzofuranyl)-5-hydroxy-2,6-dimethyl-3(2H)-pyridazinone]?
Answer: pest or weed control at 125 g/ha ([1]; post-emergence, Postemergence, visual rating after approx. 10 d, 0 to 100 scale (0 no effect, 100 complete control), read-out: Plant response rating, Velvetleaf): 0%; pest or weed control at 500 g/ha [1, 11]: 10%; pest or weed control at 125 g/ha ([1]; pre-emergence, Preemergence, 0 to 100 scale where 0 is no effect and 100 is complete control, read-out: Velvetleaf plant response rating): 0%; pest or weed control at 500 g/ha [1, 12]: 0%; pest or weed control at 125 g/ha ([2]; post-emergence, Postemergence, visual rating after approx. 10 d, 0 to 100 scale (0 no effect, 100 complete control), read-out: Plant response rating, Morningglory): 40%; pest or weed control at 500 g/ha [2, 13]: 80%; pest or weed control at 125 g/ha ([2]; pre-emergence, Preemergence, 0 to 100 scale where 0 is no effect and 100 is complete control, read-out: Morningglory plant response rating): 0%; pest or weed control at 500 g/ha [2, 14]: 0%
